According to patent US20230310496A1, “COMPOSITIONS AND METHODS FOR PREVENTING AND/OR AM[…]-[…] AUTOIMMUNE DISEASES” (MiZ Company Limited, priority 2022, published 2023):
Like-named read-outs stand apart in the source and are kept apart here.

Experiments:
[1] = system: Hashimoto's disease; conditions: MHG-2000α, hydrogen about 5% to 7%
[2] = system: anti-MuSK antibody positive myasthenia gravis; conditions: for relapse after use of the immunosuppressants was stopped: only hydrogen gas inhalation continued since Mar. 30, 2022, supplemental hydrogen water
Method: Patient: person at the time of onset. The course from onset is as follows:
Jan. […] (Kamakura city, Kanagawa prefecture, Japan).
Aug. 24, 2022: medical examination was carried out at the Department of Neurology in the Juntendo University Hospital.

[3] = human, in vivo
[4] = system: myasthenia gravis; experiment: Course of myasthenia gravis under drugs before inhalation of hydrogen gas (Example 1); type: in vivo, human; conditions: Tacrolimus 3 mg/day, Mestinon 60 mg × 3/day
Method: The course from onset is as follows:
Aug. 26, 2021: upper lip paralysis occurred. […] Since the patient was positive on an ice pack test and a Tensilon test, they were diagnosed as myasthenia gravis. No abnormality was found in a CT test. As a result of a blood test, the patient was false positive to an anti-acetylcholine antibody and prescribed an immunosuppressant (Tacrolimus 3 mg/day). […] The patient could not read letters on a newspaper, raise a frying pan or write letters, and their chewing power reduced.
Sep. 9, 2021: the patient consulted the doctor because of worsening of symptoms and prescribed an anticholinesterase agent (Mestinon 60 mg × 3/day). […] Every day after 3 p.m. or later, the patient felt that their arms are unbearably heavy. Since the arms cannot be removed, the patient spent time with the arms kept on a table.
Sep. 25, 2021: since symptoms were not improved and merely got worse, the patient changed their primary doctor to a neuroimmunology specialist doctor and hospitalization was considered.
Sep. 29, 2021: an immunosuppressant (1 mg) was additionally prescribed by the neuroimmunology specialist doctor; that is, immunosuppressants (Tacrolimus 3 mg/day, Prograf 1 mg/day) were prescribed. The patient avoided hospitalization but was followed up as an outpatient. […] Based on the result, the patient was definitively diagnosed as anti-MuSK antibody positive myasthenia gravis. […]

Structure (SMILES) | fatigue [1] | visual field (dark visual field) [1] | languor of the arm ([2]; Day 5 after initiation of inhalation, Jobs-α, hydrogen about 4% to 5%, Jan. 28, 2022) | constipation, a side effect of the immunosuppressants ([2]; Feb. 1, 2022, inhalation started Jan. 23, 2022) | blemishes on their face ([2]; Feb. 16, 2022) | symptoms of myasthenia gravis ([2]; Mar. 20, 2022) | body feeling when inhaling hydrogen gas ([2]; Mar. 22, 2022) | state of myasthenia gravis as told by the doctor ([2]; Oct. 19, 2022) | face turning red after drinking alcohol (side effect of the drugs) ([2]; after inhalation of hydrogen, Feb. 1, 2022) | number of red blood cells ([2]; blood test Mar. 9, 2022, under hydrogen inhalation, normal 3.8 to 5.04) | hematocrit ([2]; blood test Mar. 9, 2022, under hydrogen inhalation, normal 35.6 to 45.4) | anti-MuSK antibody ([2]; medical examination Aug. 24, 2022) | relapse after use of the immunosuppressants was stopped [2] | relapse after use of the immunosuppressants was stopped ([2]; listed as hydrogen) | side effects of hydrogen itself [3] | symptoms of myasthenia gravis under the drug [4]
[HH] [hydrogen gas, hydrogen] | felt less fatigued | recovered from darkness and became bright | completely gone | overcome | became light | no longer observed | the body gets lighter | not in remission but in healed state | their face never turned red | 4.22 10^12/L | 40.7% | negative | no relapse occurred | no relapse has taken place | not found | –
C=CC[C@@H]1/C=C(\C)C[C@H](C)C[C@H](OC)[C@H]2O[C@@](O)(C(=O)C(=O)N3CCCC[C@H]3C(=O)O[C@H](/C(C)=C/[C@@H]3CC[C@@H](O)[C@H](OC)C3)[C@H](C)[C@@H](O)CC1=O)[C@H](C)C[C@@H]2OC [Tacrolimus] | – | – | – | – | – | – | – | – | – | – | – | – | – | – | – | the symptoms progressed
CN(C)C(=O)Oc1ccc[n+](C)c1 [Mestinon] | – | – | – | – | – | – | – | – | – | – | – | – | – | – | – | their symptoms further got worse
